According to ChEMBL document CHEMBL3792312, “Synthesis and docking studies of pyrazine-thiazolidinone hybrid scaffold targeting dormant tuberculosis” (Bioorg Med Chem Lett, 2016):
Converted amounts (≈) assume the structure as drawn.

Legend:
[1] = Cytotoxicity against human PANC1 cells after 5 days by MTT assay; assay type: cell-based, PANC-1; conditions: for IC50: Homo sapiens, PANC-1, 120 h; for MCC at 120 h: human, PANC1 cells, read-out: MIC
A549 = experiment: (§1) Cytotoxicity against human A549 cells after 3 days by MTT assay; assay type: cell-based; conditions: Homo sapiens, A549, 72 h
[2] = as §1; assay type: cell-based; conditions: human, A549 cells; read-out: MIC
MCF7 = experiment: (§2) Cytotoxicity against human MCF7 cells after 4 days by MTT assay; assay type: cell-based; conditions: Homo sapiens, MCF7, 96 h
[3] = as §2; assay type: cell-based; conditions: human, MCF7 cells; read-out: MIC
Bacillus subtilis [4] = experiment: Antibacterial activity against Bacillus subtilis at 30 ug after 12 hrs; assay type: functional
[5] = tested on: Mycobacterium tuberculosis; experiment: Antitubercular activity against dormant Mycobacterium tuberculosis H37Ra at 30 ug after 12 days by XTT-Menadione assay; assay type: functional
Pseudomonas fluorescens [6] = experiment: Antibacterial activity against Pseudomonas fluorescens at 10 ug after 8 hrs; assay type: functional
[7] = tested on: Mycolicibacterium smegmatis; experiment: Antitubercular activity against dormant Mycobacterium smegmatis MC2 155 at 10 ug after 12 days by XTT-Menadione assay; assay type: functional, str. MC2 155
[8] = tested on: Mycolicibacterium smegmatis; experiment: Antitubercular activity against dormant Mycobacterium smegmatis MC2 155 at 30 ug after 12 days by XTT-Menadione assay; assay type: functional, str. MC2 155
[9] = tested on: Mycobacterium tuberculosis; experiment: Antitubercular activity against dormant Mycobacterium tuberculosis H37Ra after 12 days by XTT-Menadione assay; assay type: functional, organism-based; conditions: 288 h
Bacillus subtilis [10] = experiment: Antibacterial activity against Bacillus subtilis at 3 ug after 12 hrs; assay type: functional
Escherichia coli [11] = experiment: Antibacterial activity against Escherichia coli at 30 ug after 8 hrs; assay type: functional
Escherichia coli [12] = experiment: Antibacterial activity against Escherichia coli at 3 ug after 8 hrs; assay type: functional
Bacillus subtilis [13] = experiment: Antibacterial activity against Bacillus subtilis at 10 ug after 12 hrs; assay type: functional
Pseudomonas fluorescens [14] = experiment: Antibacterial activity against Pseudomonas fluorescens at 3 ug after 8 hrs; assay type: functional
Staphylococcus aureus [15] = experiment: Antibacterial activity against Staphylococcus aureus at 10 ug after 12 hrs; assay type: functional
[16] = tested on: Mycobacterium tuberculosis; experiment: Antitubercular activity against dormant Mycobacterium tuberculosis H37Ra at 3 ug after 12 days by XTT-Menadione assay; assay type: functional
[17] = Cytotoxicity against human THP1 cells after 5 days by MTT assay; assay type: cell-based, THP-1; conditions: for IC50: Homo sapiens, THP-1, 120 h; for MCC at 120 h: human, THP1 cells, read-out: MIC
[18] = tested on: Mycolicibacterium smegmatis; experiment: Antitubercular activity against dormant Mycobacterium smegmatis MC2 155 at 3 ug after 12 days by XTT-Menadione assay; assay type: functional, str. MC2 155
Escherichia coli [19] = experiment: Antibacterial activity against Escherichia coli at 10 ug after 8 hrs; assay type: functional
[20] = tested on: Mycobacterium tuberculosis; experiment: Antitubercular activity against dormant Mycobacterium tuberculosis H37Ra at 10 ug after 12 days by XTT-Menadione assay; assay type: functional
Pseudomonas fluorescens [21] = experiment: Antibacterial activity against Pseudomonas fluorescens at 30 ug after 8 hrs; assay type: functional
Staphylococcus aureus [22] = experiment: Antibacterial activity against Staphylococcus aureus at 30 ug after 12 hrs; assay type: functional
Staphylococcus aureus [23] = experiment: Antibacterial activity against Staphylococcus aureus at 3 ug after 12 hrs; assay type: functional

Compound	IC50 [1] [mg/L]	MCC at 120 h [1] [µg/mL]	IC50 (A549) [mg/L]	MCC at 72 h [2] [µg/mL]	IC50 (MCF7) [mg/L]	MCC at 96 h [3] [µg/mL]	inhibition (INH) (Bacillus subtilis [4]) [%]	inhibition (INH) [5] [%]	inhibition (INH) (Pseudomonas fluorescens [6]) [%]	inhibition (INH) [7] [%]	inhibition (INH) [8] [%]	IC50 [9] [mg/L]	MIC [9] [mg/L]	inhibition (INH) (Bacillus subtilis [10]) [%]	inhibition (INH) (Escherichia coli [11]) [%]	inhibition (INH) (Escherichia coli [12]) [%]	inhibition (INH) (Bacillus subtilis [13]) [%]	inhibition (INH) (Pseudomonas fluorescens [14]) [%]	inhibition (INH) (Staphylococcus aureus [15]) [%]	inhibition (INH) [16] [%]	further results
O=C(NN1C(=O)CS[C@@H]1c1ccc(Cl)cc1)c1cnccn1	> 100	> 100	> 100	> 100	> 100	> 100	17.44	91.2	3.658	-6.521	-1.593	1.09 (≈ 3.26 µM)	28.8 (≈ 86.1 µM)	-13.1	51.04	-35.07	9.6	8.12	12.54	66.68	IC50 [17]: > 100 mg/L; MCC at 120 h [17]: > 100 µg/mL; inhibition (INH) [18]: 41.55%; inhibition (INH) (Escherichia coli [19]): 38.71%; inhibition (INH) [20]: 66.53%; inhibition (INH) (Pseudomonas fluorescens [21]): 14.72%; inhibition (INH) (Staphylococcus aureus [22]): -47.91%; inhibition (INH) (Staphylococcus aureus [23]): 8.74%
O=C(NN1C(=O)CS[C@@H]1c1ccc([N+](=O)[O-])cc1)c1cnccn1	> 100	> 100	> 100	> 100	65.6 (≈ 190 µM)	> 100	8.09	90.93	13.35	-31.0588	9.803	1.47 (≈ 4.25 µM)	29 (≈ 84 µM)	16.03	9	-6.69	-4.94	6.405	-1.75	60.59	IC50 [17]: 97.7 mg/L (≈ 283 µM); MCC at 120 h [17]: > 100 µg/mL; inhibition (INH) [18]: 36.09%; inhibition (INH) (Escherichia coli [19]): 14.12%; inhibition (INH) [20]: 66.45%; inhibition (INH) (Pseudomonas fluorescens [21]): -21.38%; inhibition (INH) (Staphylococcus aureus [22]): -24.9%; inhibition (INH) (Staphylococcus aureus [23]): 21.93%
